# According to patent US9169213B2, “Method of weight management” (Arena Pharmaceuticals, Inc., priority 2012, dated 2015):
# Legend:
# Type in all cases: in vivo, human
# [1] = Pooled BLOOM and BLOSSOM Phase 3 studies: Week 52 outcomes by Week 12/Week 24 responder status, patients without T2DM
# Description: APD356-009 (“BLOOM”) was a 104-week, placebo controlled study that assessed the safety and efficacy of lorcaserin 10 mg BID in overweight and obese patients, with concurrent behavior modification. The primary efficacy objective during Year 1 was to evaluate weight loss; the primary objective during Year 2 was to assess the ability of lorcaserin to maintain body weight loss that was achieved during Year 1. At study start, each patient received randomized, double blind treatment assignments for Year 1 and for Year 2 (all patients were given a new randomization number for Year 2 to assure that patients and study personnel remained blinded to treatment assignments). All patients assigned to placebo during Year 1 (50% of randomized population) remained on placebo in Year 2. Patients assigned to lorcaserin during Year 1 were randomly assigned to stay on lorcaserin during Year 2 (⅔ of Year 1 lorcaserin patients) or to switch to placebo (⅓ of Year 1 lorcaserin patients).
# APD356-011 (“BLOSSOM”) was a 52-week, placebo controlled study that evaluated the effect of two lorcaserin doses (10 mg BID and 10 mg QD) on categorical and total weight loss with concurrent behavior modification. Patients were randomized in a ratio of 2:1:2 to lorcaserin 10 mg BID, 10 mg QD, or placebo.
# (§1) An analysis of early weight loss was performed, at each visit after baseline through Week 24, as a predictor of ultimate weight loss success, as defined by achieving at least about 5% weight loss at 52 weeks, or at least about 10% weight loss at 52 weeks.
# [2] = BLOOM-DM (APD356-010) Phase 3 study: Week 52 outcomes by Week 12/Week 24 responder status, patients with type 2 diabetes mellitus
# Description: APD356-010 (BLOOM-DM) was a 52-week, placebo controlled study that evaluated the effect of two lorcaserin doses (10 mg BID and 10 mg QD) on categorical and total weight loss with concurrent behavior modification in 604 patients with type 2 diabetes mellitus managed with oral hypoglycemic agents. Randomization to the 10 mg once daily group was halted by protocol amendment in order to accelerate enrollment, resulting in final group sizes of 253 (placebo), 95 (lorcaserin QD) and 256 (lorcaserin BID).
# as §1
# Table 3 and Table 4 provide the sensitivity, specificity, positive predicted value (PPV) and negative predictive value (NPV) at Weeks 12 and 24 for at least about 5% and at least about 10% weight loss at Week 52 in different studies. The rounded percent weight loss at Week 12 for at least 5% and at least about 10% weight loss at Week 52 are about 5% and about 6%, respectively. Using the about 6% weight loss at Week 12 as a criterion enhances the PPV for both about 5% and about 10% categorical weight loss at Week 52, but at the expense of excluding about 10% and about 4% more of the about 5% categorical responders at Week 52 in patients without and with diabetes, respectively, based upon NPV. The rounded optimal thresholds at Week 24 for at least about 5% and at least about 10% weight loss at Week 52 are about 6% and about 9%, respectively. Using the 9% weight loss criterion at Week 24 enhances the PPV for both about 5% and about 10% categorical weight loss at Week 52, but at the expense of excluding about 19% and about 9% more of the about 5% categorical responders at Week 52 in patients without and with diabetes, respectively, based upon NPV. As described below, if at least about a 5% weight loss criterion is applied, patients achieving this milestone will achieve an average of about 10.8% weight loss in patients without diabetes and about 9.1% weight loss in patients with diabetes at Week 52.
# (§2) Tables 6 and 7, below, present weight loss, vital sign, and glycemic changes at Week 52 in pooled patients without diabetes, patients with T2DM, and pooled patients with impaired fasting glucose (IFG; ≧100 mg/dL) who were Week 12 responders.
# [3] = Pooled patients with impaired fasting glucose (IFG) who were Week 12 responders: Week 52 outcomes
# Description: as §2
# [4] = Week 12 Responder (≧5% weight loss), MITT with LOCF, 10 mg BID
# [5] = Week 12 responders without diabetes
# [6] = Week 12 responders, patients without T2DM, 10 mg BID
# [7] = all patients without T2DM, MITT-LOCF
# [8] = percent change from baseline at Week 52, Week 12 responders, patients without T2DM, 10 mg BID
# [9] = Week 12 responders, patients with T2DM, 10 mg BID
# [10] = all patients with T2DM, MITT-LOCF
# [11] = percent change from baseline at Week 52, Week 12 responders, patients with T2DM, 10 mg BID
# [12] = Week 12 responders with impaired fasting glucose (IFG) at baseline
# [13] = Week 12 responders, patients with IFG, 10 mg BID
# [14] = percent change from baseline at Week 52, Week 12 responders, patients with IFG, 10 mg BID
substance,measurement,setting,value
"(R)-8-chloro-1-methyl-2,3,4,5-tetrahydro-1H-3-benzazepine hydrochloride salt hemihydrate [drug]",Week 52 Weight 5% Responder,[1]; [4],86%
same,Week 52 Weight 10% Responder,[1]; [4],50%
same,Week 52 reduction in diastolic blood pressure,[1]; [5],2.5 mmHg
same,Week 52 reduction in heart rate,[1]; [5],2.5 BPM
same,Week 52 reduction in systolic blood pressure,[1]; [5],3.4 mmHg
same,A1C W52 Change,[1]; [6],−0.18%
same,DBP W52 Change,[1]; [6],−2.5 mmHg
same,FPG W52 Change,[1]; [6],-2.2 mg/dL
same,Heart Rate W52 Change,[1]; [6],−2.5 bpm
same,SBP W52 Change,[1]; [6],−3.4 mmHg
same,Weight Loss ≧5% (%) at W52,[1]; [6],85.5%
same,Weight Loss ≧10% (%) at W52,[1]; [6],49.8%
same,proportion achieving ≧5% weight loss at Week 52,[1]; [7],47%
same,weight loss at Week 52,[1]; [7],5.8 kg
same,"Week 12 Responder (at least 5% weight loss at Week 12), percentage of patients","[1]; of patients with observed Week 12 data, without diabetes, 10 mg BID",49.3%
same,HDL-C (mg/dL)* W52 Change,[1]; [8],4.6%
same,LDL-C (mg/dL)* W52 Change,[1]; [8],1.1%
same,Total Cholesterol (mg/dL)* W52 Change,[1]; [8],−1.7%
same,Triglycerides (mg/dL)* W52 Change,[1]; [8],−14.5%
same,Week 52 Weight 5% Responder,[2]; [4],71%
same,Week 52 Weight 10% Responder,[2]; [4],36%
same,Week 52 reduction in diastolic blood pressure,[2]; Week 12 responders with T2DM,1.9 mmHg
same,Week 52 reduction in heart rate,[2]; Week 12 responders with T2DM,3.2 BPM
same,Week 52 reduction in systolic blood pressure,[2]; Week 12 responders with T2DM,2.6 mmHg
same,A1C W52 Change,[2]; [9],−1.2%
same,DBP W52 Change,[2]; [9],−1.9 mmHg
same,FPG W52 Change,[2]; [9],-29.3 mg/dL
same,Heart Rate W52 Change,[2]; [9],−3.2 bpm
same,SBP W52 Change,[2]; [9],−2.6 mmHg
same,Weight Loss ≧5% (%) at W52,[2]; [9],70.5%
same,Weight Loss ≧10% (%) at W52,[2]; [9],35.9%
same,Weight W52 Change,[2]; [9],-9.3 kg
same,proportion achieving ≧5% weight loss at Week 52,[2]; [10],38%
same,weight loss at Week 52,[2]; [10],4.7 kg
same,Week 52 reduction in A1C,[2]; diabetic Week 12 responders,1.2%
same,Week 52 reduction in FPG,[2]; diabetic Week 12 responders,29.3 mg/dL
same,"Week 12 Responder (at least 5% weight loss at Week 12), percentage of patients","[2]; of patients with observed Week 12 data, type 2 diabetes, 10 mg BID",35.9%
same,HDL-C (mg/dL)* W52 Change,[2]; [11],8.8%
same,LDL-C (mg/dL)* W52 Change,[2]; [11],1.4%
same,Total Cholesterol (mg/dL)* W52 Change,[2]; [11],−0.7%
same,Triglycerides (mg/dL)* W52 Change,[2]; [11],−17.8%
same,Week 52 reduction in A1C,[3]; [12],0.4%
same,Week 52 reduction in FPG,[3]; [12],7.8 mg/dL
same,A1C W52 Change,[3]; [13],−0.11%
same,DBP W52 Change,[3]; [13],−1.5 mmHg
same,FPG W52 Change,[3]; [13],-7.8 mg/dL
same,Heart Rate W52 Change,[3]; [13],−3.7 bpm
same,SBP W52 Change,[3]; [13],−1.7 mmHg
same,Weight Loss ≧5% (%) at W52,[3]; [13],88.8%
same,Weight Loss ≧10% (%) at W52,[3]; [13],52.4%
same,Weight W52 Change,[3]; [13],-11.2 kg
same,HDL-C (mg/dL)* W52 Change,[3]; [14],2.1%
same,LDL-C (mg/dL)* W52 Change,[3]; [14],2.5%
same,Total Cholesterol (mg/dL)* W52 Change,[3]; [14],−2.3%
same,Triglycerides (mg/dL)* W52 Change,[3]; [14],−15.5%
